Patent US12173026B2, “PRMT5 inhibitors” (Merck Sharp & Dohme LLC, priority 2018, dated 2024)

tested on: symmetric dimethylation of arginine (SDMA) of PRMT5 substrates in MCF-7 cells; assay: PRMT5 Cell Target Engagement (TE) Assay; format: cell-based; settings: Homo sapiens, MCF7, 72 h; MCF-7 cells treated for 3 days; nuclear SDMA by high content imaging; top concentration 10000 nM
Outline: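 MCF-7 cells treated 3 days at 37 °C with 10-point 1:3 titration from 10000 nM top. Fixed cells stained with anti-SDMA antibody plus Alexa488 secondary and Hoechst; nuclear fluorescence quantified by high-content imaging versus DMSO wells. EC50 from 4-parameter fit of percent fluorescence vs log concentration.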

EC50 | Compound
11.1 nM | CNc1ncnc2c1c(F)cn2[C@@H]1O[C@@H]2[C@H](Cc3ccc4cc(Br)c(N)nc4c3)CC[C@]2(O)[C@H]1O [Example 96, (2R,3R,3aS,6S,6aR)-6-((2-amino-3-bromoquinolin-7-yl)methyl)-2-(5-fluoro-4-(methylamino)-7H-pyrrolo[2,3-d]pyrimidin-7-yl)hexahydro-3aH-cyclopenta[b]furan-3,3a-diol]
1.3 nM | CNc1ncnc2c1ccn2[C@@H]1C[C@@H]2[C@H](Cc3ccc4cc(Br)c(N)nc4c3)CC[C@]2(O)[C@H]1O [Example 97, (1S,2R,3aR,4S,6aR)-4-((2-amino-3-bromoquinolin-7-yl)methyl)-2-(4-(methylamino)-7H-pyrrolo[2,3-d]pyrimidin-7-yl)hexahydropentalene-1,6a(1H)-diol]
272 nM | C[C@]1(COc2ccc3cccnc3c2)O[C@@H](n2ccc3c(N)ncnc32)[C@H](O)[C@@H]1O [Example 98, (2R,3S,4R,5R)-5-(4-amino-7H-pyrrolo[2,3-d]pyrimidin-7-yl)-2-methyl-2-((quinolin-7-yloxy)methyl)tetrahydrofuran-3,4-diol]
202 nM | C[C@@]1(O)[C@@H](COc2ccc3cccnc3c2)O[C@@H](n2ccc3c(N)ncnc32)[C@@H]1O [Example 99, (2R,3S,4R,5R)-5-(4-amino-7H-pyrrolo[2,3-d]pyrimidin-7-yl)-3-methyl-2-((quinolin-7-yloxy)methyl)tetrahydrofuran-3,4-diol]
7.4 nM | C[C@]1(COc2ccc3cc(Br)c(N)nc3c2)C[C@@H](n2ccc3c(N)ncnc32)[C@H](O)[C@@H]1O [Example 100, (1S,2R,3R,5R)-3-(((2-amino-3-bromoquinolin-7-yl)oxy)methyl)-5-(4-amino-7H-pyrrolo[2,3-d]pyrimidin-7-yl)-3-methylcyclopentane-1,2-diol]
1 nM | C[C@]1(COc2ccc3ccc(N)nc3c2)C[C@@H](n2ccc3c(N)ncnc32)[C@H](O)[C@@H]1O [Example 101, (1S,2R,3R,5R)-5-(4-amino-7H-pyrrolo[2,3-d]pyrimidin-7-yl)-3-(((2-aminoquinolin-7-yl)oxy)methyl)-3-methylcyclopentane-1,2-diol]
12.4 nM | C[C@@]1(O)[C@@H](CCc2ccc3cc(Br)c(N)nc3c2)C[C@@H](n2ccc3c(N)ncnc32)[C@@H]1O [Example 103, (1R,2S,3R,5S)-5-(2-(2-amino-3-bromoquinolin-7-yl)ethyl)-3-(4-amino-7H-pyrrolo[2,3-d]pyrimidin-7-yl)-1-methylcyclopentane-1,2-diol]
7 nM | Nc1ccc2ccc(O[C@H]3CC[C@@]4(O)[C@@H]3O[C@@H](n3ccc5c(N)ncnc53)[C@@H]4O)cc2n1 [Example 104, (2R,3R,3aS,6S,6aR)-2-(4-amino-7H-pyrrolo[2,3-d]pyrimidin-7-yl)-6-((2-aminoquinolin-7-yl)oxy)hexahydro-2H-cyclopenta[b]furan-3,3a-diol]
0.9 nM | C[C@@]1(O)[C@@H](COc2ccc3ccc(N)nc3c2)C[C@@H](n2ccc3cncnc32)[C@@H]1O [Example 105, (1R,2S,3R,5R)-5-(((2-aminoquinolin-7-yl)oxy)methyl)-1-methyl-3-(7H-pyrrolo[2,3-d]pyrimidin-7-yl)cyclopentane-1,2-diol]
0.5 nM | Cc1cc2ccc(OC[C@H]3C[C@@H](n4ccc5c(C)ncnc54)[C@H](O)[C@]3(C)O)cc2nc1N [Example 106, (1R,2S,3R,5R)-5-(((2-amino-3-methylquinolin-7-yl)oxy)methyl)-1-methyl-3-(4-methyl-7H-pyrrolo[2,3-d]pyrimidin-7-yl)cyclopentane-1,2-diol]
0.5 nM | Cc1ncnc2c1ccn2[C@@H]1O[C@@H]2[C@H](Cc3ccc4ccc(N)nc4c3)CC[C@]2(O)[C@H]1O [Example 107, (2R,3R,3aS,6S,6aR)-6-((2-aminoquinolin-yl)methyl)-2-(4-methyl-7H-pyrrolo[2,3-d]pyrimidin-7-yl)hexahydro-2H-cyclopenta[b]furan-3,3a-diol]
0.9 nM | Nc1nc2cc(C[C@@H]3CC[C@@]4(O)[C@@H]3O[C@@H](n3cc(F)c5c(N)ncnc53)[C@@H]4O)ccc2cc1Br [Example 108]
5.9 nM | Cc1ncnc2c1ccn2[C@@H]1C[C@](C)(CCc2ccc3cc(Br)c(N)nc3c2)[C@@H](O)[C@H]1O [Example 109, (1S,2R,3S,5R)-3-(2-(2-amino-3-bromoquinolin-7-yl)ethyl)-3-methyl-5-(4-methyl-7H-pyrrolo[2,3-d]pyrimidin-7-yl)cyclopentane-1,2-diol]
39.6 nM | Cc1ncnc2c1ccn2[C@@H]1C[C@](C)(CCc2ccc3cc4c(nc3c2)NCC4)[C@@H](O)[C@H]1O [Example 110, (1S,2R,3S,5R)-3-(2-(2,3-dihydro-1H-pyrrolo[2,3-b]quinolin-7-yl)ethyl)-3-methyl-5-(4-methyl-7H-pyrrolo[2,3-d]pyrimidin-7-yl)cyclopentane-1,2-diol]
2330 nM | C[C@]1(COc2ccc3cc(Br)c(N)nc3c2)C[C@@H](n2ccc3c(N)ncnc32)[C@H](O)[C@]1(C)O [Example 111, (1R,2S,3R,5R)-5-(((2-amino-3-bromoquinolin-7-yl)oxy)methyl)-3-(4-amino-7H-pyrrolo[2,3-d]pyrimidin-7-yl)-1,5-dimethylcyclopentane-1,2-diol]
4 nM | Cc1ncnc2c1ccn2[C@@H]1O[C@@H]2[C@@H](Oc3ccc4cc(Cl)c(N)nc4c3)CC[C@]2(O)[C@H]1O [Example 112, (2R,3R,3aS,6S,6aR)-6-((2-amino-3-chloroquinolin-7-v)oxy)-2-(4-methyl-7H-pyrrolo[2,3-d]pyrimidin-7-yl)hexahydro-2H-cyclopenta[b]furan-3,3a-diol]
1.8 nM | Cc1ncnc2c1ccn2[C@@H]1O[C@@H]2[C@@H](Oc3ccc4ccc(N)nc4c3)CC[C@]2(O)[C@H]1O [Example 113, (2R,3R,3aS,6S,6aR)-6-((2-aminoquinolin-7-yl)oxy)-2-(4-methyl 7H-pyrrolo[2,3-d]pyrimidin-7-yl)hexahydro-2H-cyclopenta[b]furan-3,3a-diol]
4.4 nM | Cc1nc(N)nc2c1ccn2[C@@H]1O[C@@H]2[C@@H](Oc3ccc4cc(Br)c(N)nc4c3)CC[C@]2(O)[C@H]1O [Example 114, (2R,3R,3aS,6S,6aR)-6-((2-amino-3-bromoquinolin-7-yl)oxy)-2-(2-amino-4-methyl-7H-pyrrolo[2,3-d]pyrimidin-7-yl)hexahydro-3aH-cyclopenta[b]furan-3,3a-diol]
13.6 nM | Cc1ncnc2c1ccn2[C@@H]1O[C@@H]2[C@@H](Oc3ccc4cc(C(F)F)c(N)nc4c3)CC[C@]2(O)[C@H]1O [Example 115, (2R,3R,3aS,6S,6aR)-6-((2-amino-3-(difluoromethyl)quinolin-7-yl)oxy)-2-(4-methyl-7H-pyrrolo[2,3-d]pyrimidin-7-yl)hexahydro-3aH-cyclopenta[b]furan-3,3a-diol]
53.7 nM | C[C@@]1(CCc2ccc3cc(F)c(N)nc3c2)C[C@@H](n2ccc3c(N)ncnc32)[C@H](O)[C@@H]1O [Example 116, (1S,2R,3R,5R)-3-(2-(2-amino-3-fluoroquinolin-7-yl)ethyl)-5-(4-amino-7H-pyrrolo[2,3-d]pyrimidin-7-yl)-3-methylcyclopentane-1,2-diol]
8.5 nM | C[C@]1(CCc2ccc3cc(Br)c(N)nc3c2)C[C@@H](n2ccc3c(N)ncnc32)[C@H](O)[C@]1(C)O [Example 117, (1R,2S,3R,5S)-5-(2-(2-amino-3-bromoquinolin-7-yl)ethyl)-3-(4-amino-7H-pyrrolo[2,3-d]pyrimidin-7-yl)-1,5-dimethylcyclopentane-1,2-diol]
103 nM | C[C@]1(O)[C@@H](O)[C@H](n2ccc3c(N)ncnc32)C[C@]1(O)CCc1ccc2cc(Br)c(N)nc2c1 [Example 118, (1R,2S,3S,4R)-1-(2-(2-amino-3-bromoquinolin-7-yl)ethyl)-4-(4-amino-7H-pyrrolo[2,3-d]pyrimidin-7-yl)-2-methylcyclopentane-1,2,3-triol]
180 nM | Nc1nc2cc(O[C@H]3CC[C@@]4(O)[C@@H]3C[C@@H](n3ccc5c(N)ncnc53)[C@@H]4O)ccc2cc1Br [Example 119, (1S,2R,3aR,4S,6aR)-4-((2-amino-3-bromoquinolin-7-yl)oxy)-2-(4-amino-7H-pyrrolo[2,3-d]pyrimidin-7-yl)hexahydropentalene-1,6a(1H)-diol 2,2,2-trifluoroacetate]
2 nM | Cc1ncnc2c1ccn2[C@@H]1O[C@@H]2[C@@H](Nc3ccc4cc(F)c(N)nc4c3)CC[C@]2(O)[C@H]1O [Example 120, (2R,3R,3aS,6S,6aR)-6-(2-amino-3-fluoroquinolin-7-yl)amino-2-(4-methyl-7H-pyrrolo[2,3-d]pyrimidin-7-yl)hexahydro-3aH-cyclopenta[b]furan-3,3a-diol]
1 nM | C[C@]12O[C@@H](n3ccc4c(N)ncnc43)[C@H](O)[C@@]1(O)CC[C@H]2Cc1ccc2cc(F)c(N)nc2c1 [Example 121, (2R,3R,3aS,6S,6aR)-6-((2-amino-3-fluoroquinolin-7-yl)methyl)-2-(4-amino-7H-pyrrolo[2,3-d]pyrimidin-7-yl)-6a-methylhexahydro-3aH-cyclopenta[b]furan-3,3a-diol]
2.5 nM | Cc1ncnc2c1ccn2[C@@H]1O[C@@H]2[C@H](Cc3ccc4cc(Cl)c(N)nc4c3)CC[C@]2(O)[C@H]1O [Example 122, (2R,3R,3aS,6S,6aR)-6-((2-amino-3-chloroquinolin-7-yl)methyl)-2-(4-methyl-7H-pyrrolo[2,3-d]pyrimidin-7-yl)hexahydro-3aH-cyclopenta[b]furan-3,3a-diol]
13.1 nM | Cc1ncnc2c1ccn2[C@@H]1O[C@@H]2[C@H](Cc3ccc4cc(F)c(N)nc4c3)CC[C@]2(O)[C@H]1O [Example 123, (2R,3R,3aS,6S,6aR)-6-((2-amino-3-fluoroquinolin-7-yl)methyl)-2-(4-methyl-7H-pyrrolo[2,3-d]pyrimidin-7-yl)hexahydro-3aH-cyclopenta[b]furan-3,3a-diol]
